In patent US20260158005A1, “A SALT-BASED ANTIFUNGAL POWDER PLATFORM FORMULATION FOR AEROSOLIZATION” (AGENCY FOR SCIENCE, TECHNOLOGY AND RESEARCH, priority 2021, published 2026):
Converted amounts (≈) assume the structure as drawn.

Assays:
[1] = In vitro aerosol performance: Fine Particle Fraction (FPF) of the powder; format: physicochemical; conditions: Table 5; optimized platform formulation (sodium sulfate 5% w/w, L-leucine 30% w/w, spray dry) vs unformulated
Excerpt: The responses were Fine Particle Fraction (FPF) and Anti-fungal Activity (MIC—Minimum Inhibitory Concentration) (Table 2), while the tested pathogen was Candida albicans.
The FPF was influenced mainly by the type of salt excipient (i.e., parameter A; Rank 1), with sodium sulfate as one of the preferred options. The optimum results for all the parameters are: A6, B1, C1, D3.
Letters A, B, C and D represent the experimental parameters and corresponding levels.

[2] = test system: Candida albicans; test: Antifungal activity (MIC, Minimum Inhibitory Concentration); format: cell-based; conditions: for MIC: Candida albicans, Table 5, optimized platform formulation vs unformulated
Excerpt: The responses were Fine Particle Fraction (FPF) and Anti-fungal Activity (MIC—Minimum Inhibitory Concentration) (Table 2), while the tested pathogen was Candida albicans. The antifungal activity was influenced mainly by the type of salt excipient as well (i.e. parameter A; Rank 1), with sodium sulfate as one of the preferred options. The optimum results for all the parameters are: A6, B1, C3, D3.

SMILES: OC(Cn1cncn1)(Cn1cncn1)c1ccc(F)cc1F [A, Fluconazole]
- FPF (%) [1]: 2.6 ± 0.1%
- MIC [2]: 0.25 µg/mL (≈ 0.816 µM)
- improvement in antifungal activity ([2]; formulated using the platform technology vs unformulated): approximately 4 times

SMILES: CCC(C)n1ncn(-c2ccc(N3CCN(c4ccc(OCC5COC(Cn6cncn6)(c6ccc(Cl)cc6Cl)O5)cc4)CC3)cc2)c1=O (stereo not drawn) [B, Itraconazole]
- MIC [2]: < 0.03 µg/mL

SMILES: C[C@@H](c1ncncc1F)[C@](O)(Cn1cncn1)c1ccc(F)cc1F [C, Voriconazole]
- FPF (%) [1]: 3.5 ± 0.3%
- MIC [2]: < 0.03 µg/mL
